Assay results published in ChEMBL document CHEMBL4118066, “QSAR-driven design, synthesis and discovery of potent chalcone derivatives with antitubercular activity” (Eur J Med Chem, 2017).
≈ marks a conversion by molar mass, not a printed value.

System: Mycobacterium tuberculosis variant bovis
Assay: microbe, parasite or virus in culture
Format: functional
Conditions: ATCC 35734, 168 h

SMILES	MIC90 [µM]
COc1ccc(/C=C/C(=O)c2cccc(Br)c2)cc1	9.38 (≈ 2.98 µg/mL)
COc1ccc(/C=C/C(=O)c2cccc(I)c2)cc1	9.47 (≈ 3.45 µg/mL)
COc1ccc(/C=C/C(=O)c2ccc(-c3ccccc3)cc2)cc1	> 10
CN(C)c1ccc(/C=C/C(=O)c2ccc(-c3ccccc3)cc2)cc1	> 10
O=C(/C=C/c1ccc([N+](=O)[O-])o1)c1ccc(N2CCCC2)cc1	2.18 (≈ 0.681 µg/mL)
CC(C)(C)c1ccc(C(=O)/C=C/c2ccc([N+](=O)[O-])s2)cc1	0.5 (≈ 0.158 µg/mL)
Cc1cccc(C(=O)/C=C/c2ccc([N+](=O)[O-])o2)c1	> 10
O=C(/C=C/c1ccc([N+](=O)[O-])cc1)c1ccc(N2CCCCC2)cc1	> 10
Cc1ccc(C(=O)/C=C/c2ccc([N+](=O)[O-])s2)cc1	0.98 (≈ 0.268 µg/mL)
O=C(/C=C/c1ccc([N+](=O)[O-])o1)c1ccc(I)cc1	2.57 (≈ 0.949 µg/mL)
O=C(/C=C/c1ccc([N+](=O)[O-])s1)c1ccc(C2CCCCC2)cc1	2.38 (≈ 0.813 µg/mL)
O=C(/C=C/c1ccc([N+](=O)[O-])s1)c1ccc(N2CCOCC2)cc1	9.12 (≈ 3.14 µg/mL)
CC(C)(C)c1ccc(C(=O)/C=C/c2ccco2)cc1	> 10
Cc1ccccc1C(=O)/C=C/c1ccc([N+](=O)[O-])o1	0.27 (≈ 0.0695 µg/mL)
CSc1ccc(C(=O)/C=C/c2ccc([N+](=O)[O-])s2)cc1	0.56 (≈ 0.171 µg/mL)
O=C(/C=C/c1ccco1)c1ccc(N2CCCCC2)cc1	> 10
O=C(/C=C/c1ccc([N+](=O)[O-])o1)c1ccc(-c2ccccc2)cc1	0.59 (≈ 0.188 µg/mL)
O=C(/C=C/c1ccc([N+](=O)[O-])s1)c1ccc(-n2ccnc2)cc1	0.23 (≈ 0.0748 µg/mL)
CSc1ccc(C(=O)/C=C/c2ccco2)cc1	> 10
CCCCc1ccc(C(=O)/C=C/c2ccc([N+](=O)[O-])s2)cc1	1.64 (≈ 0.517 µg/mL)
O=C(/C=C/c1cccc([N+](=O)[O-])c1)c1ccc(N2CCCCC2)cc1	> 10
CCCCc1ccc(C(=O)/C=C/c2ccc([N+](=O)[O-])o2)cc1	0.36 (≈ 0.108 µg/mL)
O=C(/C=C/c1ccc(Cl)s1)c1ccc(-n2ccnc2)cc1	9.52 (≈ 3 µg/mL)
O=C(/C=C/c1ccc([N+](=O)[O-])o1)c1cccc(Br)c1	0.18 (≈ 0.058 µg/mL)
CSc1ccc(C(=O)/C=C/c2ccc([N+](=O)[O-])o2)cc1	0.26 (≈ 0.0752 µg/mL)
CC(C)(C)c1ccc(C(=O)/C=C/c2ccc[nH]2)cc1	> 10
